Test results reported in patent US5187157A, “Peptide boronic acid inhibitors of trypsin-like proteases” (Du Pont Merck Pharmaceutical Company, priority 1988, dated 1993).
Residues, ends and D or L forms follow the SMILES beside them. *: point of attachment. X1 = CC1(C)C2CC3OB(C(CCCNC(=N)N)N*)OC3(C)C1C2; X2 = CC1(C)C2CC3OB(C(CCCSC(=N)N)N*)OC3(C)C1C2; X3 = CC1(C)C2CC3OB(C(CCCN)N*)OC3(C)C1C2; Boc = CC(C)(C)OC(=O)*

How the values were obtained:
[1] = target: T1, Human plasma kallikrein (Homo sapiens, UniProt P03952); assay: Inhibition of Human Plasma Kallikrein; format: biochemical; settings: for Percent Activity: activity remaining 10 to 20 min after initiation
T1 construct: purchased Protogen AG (Switzerland)
T1 sequence (P03952 391-638 limits assumed): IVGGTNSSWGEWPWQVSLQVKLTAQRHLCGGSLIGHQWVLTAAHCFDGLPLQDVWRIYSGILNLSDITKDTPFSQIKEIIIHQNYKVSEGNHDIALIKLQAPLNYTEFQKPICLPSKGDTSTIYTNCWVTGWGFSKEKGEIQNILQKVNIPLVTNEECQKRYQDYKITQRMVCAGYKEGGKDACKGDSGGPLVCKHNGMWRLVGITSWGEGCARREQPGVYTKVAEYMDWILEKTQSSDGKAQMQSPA
T1 sequence (P03952 20-390 partner limits assumed): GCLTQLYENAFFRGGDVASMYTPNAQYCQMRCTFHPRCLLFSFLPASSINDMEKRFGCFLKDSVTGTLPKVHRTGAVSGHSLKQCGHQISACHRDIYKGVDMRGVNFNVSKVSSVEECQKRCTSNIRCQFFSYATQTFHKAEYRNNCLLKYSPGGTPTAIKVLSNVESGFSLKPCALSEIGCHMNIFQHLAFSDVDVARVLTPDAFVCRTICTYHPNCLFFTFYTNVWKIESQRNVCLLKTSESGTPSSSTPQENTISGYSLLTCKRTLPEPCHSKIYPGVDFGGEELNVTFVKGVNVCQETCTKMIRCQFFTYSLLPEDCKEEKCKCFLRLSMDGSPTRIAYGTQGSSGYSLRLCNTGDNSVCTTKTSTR
Protocol: (§1) In the Examples which follow, the hydrolytic activity of each enzyme is measured in both the presence and absence of inhibitor and the percent enzyme activity determined. […] A steady state is reached fairly rapidly and nears completion within 5 min. Activity is evaluated between 10-20 min after the components are mixed to insure that reaction components are at equilibrium. The lowest concentration of inhibitor tested is determined by the estimated concentration of enzyme. […] The maintenance of pseudo-first-order reaction conditions and the sensitivity of the respective assays sets the lowest limit level of inhibitor tested at 10 nM for kallikrein inhibitors and 5 nM for thrombin inhibitors.
Human plasma kallikrein was obtained from Protogen AG (Switzerland). The specific activity as described by the supplier is 15 units per mg. A unit is defined as the quantity of enzyme required to hydrolyze 1 μmole of substrate, H-(D)Pro-Phe-Arg-p-nitroanilide (Kabi S2302), per min at a substrate concentration of 0.50 mM at 25° in 50 mM potassium phosphate buffer, pH 8.0.

[2] = target: T2, Human thrombin (Homo sapiens, UniProt P00734); assay: Inhibition of Thrombin (Esterase Activity); format: biochemical; settings: for Percent Activity: activity remaining 10 to 20 min after initiation
T2 construct: purchased R.Q.P. Laboratories, South Bend, IN Lot HT102
Protocol: as §1
A stock solution of thrombin was prepared in 0.010M PIPES Buffer, pH 6.0, containing 0.75 M sodium chloride. […] The initial concentration of substrate was 0.10 mM and the concentration of thrombin was 1.0 nM (based on weight).

CC(=O)NC(Cc1ccccc1)C(=O)N1CCCC1C(=O)NC(CCCNC(=N)N)B1OC2CC3CC(C3(C)C)C2(C)O1.Cl (stereo not drawn) [Ac--(D)Phe--Pro--boroArg--C10 H16.HCl, Ac-(D)Phe-Pro-boroArg-C10 H16.HCl]
Percent Activity ([1]; inhibitor 10 nM): 56%
Ki (suggested by inhibitor concentration and percent inhibition) ([2]; estimate from percent inhibition): in the picomolar range
inhibits thrombin ([2]; inhibitor 5 nM): 99%
Percent Activity ([2]; inhibitor 5 nM): 1%

Br.CC(=O)NC(C)C(=O)NC(CCCCNC(=O)OC(C)(C)C)C(=O)NC(CCCSC(=N)N)B1OC2CC3CC(C3(C)C)C2(C)O1 (centres unmarked) [Ac--Ala--Lys(Boc)--boroIrg--C10 H16.HBr, Ac-Ala-Lys(Boc)-boroIrg-C10 H16.HBr]
Percent Activity ([1]; inhibitor 50 nM): 1.4%
Percent Activity ([2]; inhibitor 100 nM): 55%

CC(=O)NC(C)C(=O)NC(CCCCN)C(=O)NC(CCCNC(=N)N)B1OC2CC3CC(C3(C)C)C2(C)O1.Cl.Cl (stereo not drawn) [Ac--Ala--Lys--boroArg--C10 H16.2HCl, Ac-Ala-Lys-boroArg-C10 H16.2HCl]
Percent Activity ([1]; inhibitor 50 nM): 39%
Percent Activity ([2]; inhibitor 1000 nM): 45%

Br.Br.CC(=O)NC(C)C(=O)NC(CCCCN)C(=O)NC(CCCSC(=N)N)B1OC2CC3CC(C3(C)C)C2(C)O1 (stereo not drawn) [Ac--Ala--Lys--boroIrg--C10 H16.2HBr, Ac-Ala-Lys-boroIrg-C10 H16.2HBr]
Percent Activity ([2]; inhibitor 1000 nM): 68%

CC(=O)NC(Cc1ccccc1)C(=O)NC(CCCCN)B1OC(C)(C)C(C)(C)O1.Cl (centres unmarked) [Ac--Phe--boroLys--C6 H12.HCl, Ac-Phe-boroLys-C6 H12.benzene sulfonic acid]
Percent Activity ([2]; inhibitor 10000 nM): 97%

CC(C)(C)OC(=O)NC(Cc1ccccc1)C(=O)NC(Cc1ccccc1)C(=O)NC(CCCN)B1OC2CC3CC(C3(C)C)C2(C)O1.O=S(=O)(O)c1ccccc1 (stereo not drawn) [Boc--(D)Phe--Phe--boroOrn--C10 H16.BSA, Boc-(D)Phe-Phe-boroOrn-C10 H16.benzene sulfonic acid]
Percent Activity ([1]; inhibitor 10000 nM): 39%

CC(C)(C)OC(=O)NC(Cc1ccccc1)C(=O)N1CCCC1C(=O)NC(CCCN)B1OC2CC3CC(C3(C)C)C2(C)O1.O=S(=O)(O)c1ccccc1 (stereo not drawn) [Boc--(D)Phe--Pro--boroOrn--C10 H16.BSA, Boc-(D)Phe-Pro-NH-CH[(CH2)3 NH2 ]BO2 -C10 H16.benzene sulfonic acid]
Percent Activity ([1]; inhibitor 10000 nM): 100%
Percent Activity ([2]; inhibitor 100 nM): 18%

CC(C)CC(NC(=O)C(NC(=O)OC(C)(C)C)C(C)C)C(=O)NC(CCCCN)B1OC(C)(C)C(C)(C)O1.Cl (stereo not drawn) [Boc--(D)Val--Leu--boroLys--C6 H12.HCl, Boc-(D)Val-Leu-boroLys-C6 H12.benzene sulfonic acid]
Percent Activity ([2]; inhibitor 1000 nM): 21%

CC(NC(=O)OC(C)(C)C)C(=O)NC(Cc1ccccc1)C(=O)NC(CCCCN)B1OC(C)(C)C(C)(C)O1.Cl (stereo not drawn) [Boc--Ala--Phe--(D,L)boroLys--C6 H12.HCl, Boc-Ala-Phe-(D,L)boroLys-C6 H12.HCl]
Percent Activity ([1]; inhibitor 1000 nM): 17%
Percent Activity ([2]; inhibitor 10000 nM): 46%

Br.CC(NC(=O)OC(C)(C)C)C(=O)NC(Cc1ccccc1)C(=O)NC(CCCCSC(=N)N)B1OC(C)(C)C(C)(C)O1 (stereo not drawn) [Boc-Ala-Phe-(D,L)boroHomoIrg-C6 H12.HBr]
Percent Activity ([1]; inhibitor 100 nM): 38%
Percent Activity ([2]; inhibitor 10000 nM): 32%

CC(C)CC(NC(=O)CNC(=O)C(CC(C)C)NC(=O)OC(C)(C)C)C(=O)NC(C)C(=O)NC(CCCNC(=N)N)B1OC2CC3CC(C3(C)C)C2(C)O1.O=S(=O)(O)c1ccccc1 (stereo not drawn) [Boc-Leu-Gly-Leu-Ala-boroArg-C10 H16.benzene sulfonic acid] (Boc-LGLA-X1; configuration not given here)
Percent Activity ([1]; inhibitor 10 nM): 30%
Percent Activity ([2]; inhibitor 10 nM): 38%

Br.CC(C)CC(NC(=O)CNC(=O)C(CC(C)C)NC(=O)OC(C)(C)C)C(=O)NC(C)C(=O)NC(CCCSC(=N)N)B1OC2CC3CC(C3(C)C)C2(C)O1 (stereo not drawn) [Boc-Leu-Gly-Leu-Ala-boroIrg-C10 H16.HBr] (Boc-LGLA-X2; configuration not given here)
Percent Activity ([2]; inhibitor 10 nM): 66%

CC(C)CC(NC(=O)CNC(=O)C(CC(C)C)NC(=O)OC(C)(C)C)C(=O)NC(C)C(=O)NC(CCCN)B1OC2CC3CC(C3(C)C)C2(C)O1.O=S(=O)(O)c1ccccc1 (stereo not drawn) [Boc-Leu-Gly-Leu-Ala-boroOrn-C10 H16] (Boc-LGLA-X3; configuration not given here)
Percent Activity ([2]; inhibitor 1000 nM): 24%

CCCCOC(=O)CC[C@H](NC(=O)c1ccccc1)C(=O)NCC(=O)NC(CCCNC(=N)N)B1OC2CC3CC(C3(C)C)C2(C)O1.O=S(=O)(O)c1ccccc1 (some centres unmarked) [Bz--Glu(OBu)--Gly--boroArg--C10 H16.BSA, Bz-Glu(OBu)-Gly-boroArg-C10 H16.benzene sulfonic acid]
Percent Activity ([1]; inhibitor 50 nM): 11%
Percent Activity ([2]; inhibitor 10 nM): 52%

CC1(C)C2CC3OB(C(CCCNC(=N)N)NC(=O)CNC(=O)C(CCC(=O)O)NC(=O)c4ccccc4)OC3(C)C1C2.O=S(=O)(O)c1ccccc1 (stereo not drawn) [Bz--Glu--Gly--boroArg--C10 H16.BSA, Bz-Glu-Gly-boroArg-C10 H16.benzene sulfonic acid]
Percent Activity ([1]; inhibitor 50 nM): 39%
Percent Activity ([2]; inhibitor 100 nM): 46%

Br.CC1(C)C2CC3OB(C(CCCSC(=N)N)NC(=O)CNC(=O)C(CCC(=O)O)NC(=O)c4ccccc4)OC3(C)C1C2 (stereo not drawn) [Bz--Glu--Gly--boroIrg-- C10 H16.HBr, Bz-Glu-Gly-boroIrg-C10 H16.HBr]
Percent Activity ([2]; inhibitor 1000 nM): 39%

CC1(C)C2CC3OB(C(CCCNC(=N)N)NC(=O)C(Cc4ccccc4)NC(=O)C4CCCN4C(=O)c4ccccc4)OC3(C)C1C2.O=S(=O)(O)c1ccccc1 (stereo not drawn) [Bz--Pro--Phe--boroArg--C10 H16.BSA, Bz-Pro-Phe-boroArg-C10 H16.benzene sulfonic acid]
Percent Activity ([1]; inhibitor 10 nM): 15%
Percent Activity ([2]; inhibitor 1000 nM): 24%

Cl.NC(N)=NCCC[C@H](NC(=O)[C@H](Cc1ccccc1)NC(=O)[C@@H]1CCCN1C(=O)c1ccccc1)B(O)O [Bz--Pro--Phe--boroArg--OH.HCl, Bz-Pro-Phe-boroArg-OH.HCl]
Percent Activity ([1]; inhibitor 10 nM): 16%
Percent Activity ([2]; inhibitor 1000 nM): 18%

Br.CC1(C)C2CC3OB(C(CCCSC(=N)N)NC(=O)C(Cc4ccccc4)NC(=O)C4CCCN4C(=O)c4ccccc4)OC3(C)C1C2 (stereo not drawn) [Bz--Pro--Phe--boroIrg--C10 H16.HBr, Bz-Pro-Phe-boroIrg-C10 H16.HBr]
Percent Activity ([2]; inhibitor 1000 nM): 21%

Br.Br.CC1(C)C2CC3OB(C(CCCSC(=N)N)NC(=O)C(Cc4ccccc4)NC(=O)C(N)Cc4ccccc4)OC3(C)C1C2 (stereo not drawn) [H--(D)Phe--Phe-- boroIrg--C10 H16.2HBr, H-(D)Phe-Phe-boroIrg-C10 H16.2HBr]
Percent Activity ([2]; inhibitor 10 nM): 49%

CC1(C)C2CC3OB(C(CCCNC(=N)N)NC(=O)C(Cc4ccccc4)NC(=O)C(N)Cc4ccccc4)OC3(C)C1C2.Cl.Cl (stereo not drawn) [H--(D)Phe--Phe--boroArg--C10 H16.2HCl, H-(D)Phe-Phe-boroArg-C10 H16.2HCl]
inhibits kallikrein ([1]; inhibitor 10 nM): greater than 95%
Percent Activity ([1]; inhibitor 10 nM): 2.6%
Percent Activity ([2]; inhibitor 10 nM): 10%

Br.CC1(C)C2CC3OB(C(CCCSC(=N)N)NC(=O)C4CCCN4C(=O)C(N)Cc4ccccc4)OC3(C)C1C2.Cl (stereo not drawn) [H--(D)Phe--Pro--boroIrg--C10 H16.HBr.HCl, H-(D)Phe-Pro-boroIrg-C10 H16.HBr,HCl]
Percent Activity ([2]; inhibitor 5 nM): 4%

Br.Br.CC(N)C(=O)NC(Cc1ccccc1)C(=O)NC(CCCSC(=N)N)B1OC(C)(C)C(C)(C)O1 (stereo not drawn) [H--Ala--Phe--(D,L)boroIrg--C6 H12.2HBr, H-Ala-Phe-(D,L)boroIrg-C6 H12.2HBr]
Percent Activity ([2]; inhibitor 10000 nM): 23%

Br.Br.CC(N)C(=O)NC(Cc1ccccc1)C(=O)NC(CCCCSC(=N)N)B1OC(C)(C)C(C)(C)O1 (stereo not drawn) [H-Ala-Phe-(D,L)boroHomoIrg-C6 H12.2HBr]
Percent Activity ([2]; inhibitor 10000 nM): 47%

CC(C)CC(N)C(=O)NCC(=O)NC(CC(C)C)C(=O)NC(C)C(=O)NC(CCCNC(=N)N)B1OC2CC3CC(C3(C)C)C2(C)O1.Cl.O=S(=O)(O)c1ccccc1 (stereo not drawn) [H-Leu-Gly-Leu-Ala-boroArg-C10 H16.HCl.benzene sulfonic acid] (H-LGLA-X1; configuration not given here)
Percent Activity ([2]; inhibitor 10 nM): 25%

Br.Br.CC(C)CC(N)C(=O)NCC(=O)NC(CC(C)C)C(=O)NC(C)C(=O)NC(CCCSC(=N)N)B1OC2CC3CC(C3(C)C)C2(C)O1 (stereo not drawn) [H-Leu-Gly-Leu-Ala-boroIrg-C10 H16.2HBr] (H-LGLA-X2; configuration not given here)
Percent Activity ([2]; inhibitor 10 nM): 37%

Br.CC1(C)C2CC3OB(C(CCCSC(=N)N)NC(=O)CNC(=O)CNC(=O)C(Cc4ccccc4)NC(=O)OCc4ccccc4)OC3(C)C1C2 (stereo not drawn) [Z--Phe--Gly--Gly--boroIrg--C10 H16.HBr, Z-PheGly-Gly-boroIrg-C10 H16.HBr]
Percent Activity ([2]; inhibitor 100 nM): 46%

Ac-Ala-Lys(Boc)-boroArg-C10 H16.benzene sulfonic acid [Ac--Ala--Lys(Boc)--boroArg--C10 H16.BSA]
Percent Activity ([1]; inhibitor 10 nM): 34%
Percent Activity ([2]; inhibitor 100 nM): 18%

Boc-Ala-Phe-(D,L)boroIrg-C6 H12.HBr [Boc--Ala--Phe--(D,L)boroIrg--C6 H12.HBr]
Percent Activity ([1]; inhibitor 10 nM): 15%
Percent Activity ([2]; inhibitor 1000 nM): 28%

Bz-Glu(OBu)-Gly-boroIrg-C10 H16.HBr [Bz--Glu(OBu--Gly--boroIrg--C10 H16.HBr]
Percent Activity ([2]; inhibitor 10 nM): 59%

Bz-Pro-Phe-boroArg-F.hydrogen chloride [Bz--Pro--Phe--boroArg--F]
Percent Activity ([1]; inhibitor 10 nM): 18%
Percent Activity ([2]; inhibitor 1000 nM): 18%

H-A]a-Phe-(D,L)boroLys-C6 H12.TFA.benzene sulfonic acid [H--Ala--Phe--D,L)boroLys--C6 H12.2HCl]
Percent Activity ([2]; inhibitor 10000 nM): 89%
